Laboratory results: US12071434B2, “Heterocyclic compound” (Takeda Pharmaceutical Company Limited, priority 2018, dated 2024)

How the values were obtained:
[1] = tested on: mice (C57BL/6J mice); test: Evaluation of wake-promoting effects by EEG and EMG in mice; type: in vivo; conditions: 30 mg/kg, p.o., at zeitgeber time 5; time spent in wakefulness for 2 h after administration; male mice
Procedure: The wake-promoting effects were evaluated by measuring the electroencephalogram (EEG) and electromyogram (EMG) in […] mice (C57BL/6Jmice, CLEA Japan Inc., Tokyo, Japan). Under pentobarbital sodium anesthesia (50 mg/kg, intraperitoneal, Somnopentyl®, Kyoritsu Seiyaku, Tokyo, Japan), […] male […] mice were surgically implanted with EEG electrode and EMG electrode. Bilateral EEG leads (Biotex, Kyoto, Japan) were stereotaxically positioned at the parietal area and secured to the cranium with stainless-steel screws in contact with the dura. Bilateral EMG leads (Biotex) were implanted into the back cervical muscles. After at least a 1-week recovery period in home cages, the […] mice were habituated to the recording chamber located in an electrically shielded soundproof room. After habituated, the cortical EEG and EMG signals were recorded using VitalRecorder® (Kissei Comtec Co., Ltd., Nagano, Japan). The signals were automatically scored in 4 sec epochs by a sleep scoring system (SleepSign®, Kissei Comtec Co., Ltd.). Test compound (30 mg/kg, Table 3X-1) dissolved in a mixed solution containing 10% DMSO, 10% Cremophor EL, 20% PEG400 and 60% H2O, or vehicle (i.e., a mixed solution containing 10% DMSO, 10% Cremophor EL, 20% PEG400 and 60% H2O) was administered orally (p.o.) to the […] mice at zeitgeber time 5 in a volume of 10 mL/kg. The EEG and EMG recordings were performed for 2 h after the compound administration. The time spent in wakefulness for 2 h after administration (% of vehicle treatment) was calculated by using SleepSign.

[2] = target: T1, human orexin type 2 receptor (Homo sapiens, UniProt O43614); test: Measurement of orexin type 2 receptor agonist activity (calcium fluorescence, Fluo-4 AM, FDSS) in CHO cells forcibly expressing human OX2 receptor; type: cell-based; conditions: test compound 3 μM, DMSO = 0%, orexin A (human) 10 nM = 100%
T1 construct: expressed in transfected cells
T1 sequence (O43614 1-444): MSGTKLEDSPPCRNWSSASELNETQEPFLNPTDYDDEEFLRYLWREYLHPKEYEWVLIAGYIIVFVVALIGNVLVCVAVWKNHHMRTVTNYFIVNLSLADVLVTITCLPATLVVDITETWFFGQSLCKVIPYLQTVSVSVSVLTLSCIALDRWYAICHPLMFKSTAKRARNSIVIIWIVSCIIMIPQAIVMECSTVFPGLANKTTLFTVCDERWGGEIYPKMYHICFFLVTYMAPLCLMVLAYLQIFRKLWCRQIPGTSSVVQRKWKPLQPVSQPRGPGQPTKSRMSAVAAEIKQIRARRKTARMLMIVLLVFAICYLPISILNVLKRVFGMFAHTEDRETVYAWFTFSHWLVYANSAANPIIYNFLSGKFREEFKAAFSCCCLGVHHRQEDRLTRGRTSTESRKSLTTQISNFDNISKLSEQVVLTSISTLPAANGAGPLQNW
In short: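 CHO-dhfr cells stably expressing human OX2 receptor, loaded with Fluo-4 AM plus probenecid for 30 min at 37 °C, then 30 min at room temperature. Calcium fluorescence read for about 2 min 40 s after compound addition. Activity (%) scaled between DMSO (0%) and 10 nM human orexin A (100%).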

| Compound | Wakefulness time (% of vehicle treatment) (Mean, n = 3) [1] | 0X2R agonist activity (3 μM, %) [2] [%] |
| --- | --- | --- |
| CC(C)n1cnc2c(c1=O)[C@@H](Cc1cccc(-c3cccc(F)c3)c1F)[C@@H](NS(=O)(=O)C1CC1)CC2 [Example 172, N-[(5R,6S)-5-[(2,3′-difluoro[1,1′-biphenyl]-3-yl)methyl]-4-oxo-3-(propan-2-yl)-3,4,5,6,7,8-hexahydroquinazolin-6-yl]cyclopropanesulfonamide] | 201.32 % of vehicle treatment | 95 |
| CC(C)n1cnc2c(c1=O)[C@@H](Cc1cccc(-c3ccccc3)c1F)[C@@H](NS(=O)(=O)C1CC1)CC2 [Example 176, N-[(5R,6S)-5-[(2-fluoro[1,1′-biphenyl]-3-yl)methyl]-4-oxo-3-(propan-2-yl)-3,4,5,6,7,8-hexahydroquinazolin-6-yl]cyclopropanesulfonamide] | 204.27 % of vehicle treatment | 93 |
| CC(C)n1cnc2c(c1=O)[C@@H](Cc1cccc(-c3ccccc3)c1F)[C@@H](NS(=O)(=O)C1(F)CC1)CC2 [Example 180, 1-fluoro-N-[(5R,6S)-5-[(2-fluoro[1,1′-biphenyl]-3-yl)methyl]-4-oxo-3-(propan-2-yl)-3,4,5,6,7,8-hexahydroquinazolin-6-yl]cyclopropane-1-sulfonamide] | 197.28 % of vehicle treatment | 94 |
| CC(C)n1cnc2c(c1=O)[C@@H](Cc1cccc(-c3cc(F)cc(F)c3)c1F)[C@@H](NS(=O)(=O)C1(F)CC1)CC2 [Example 182, 1-fluoro-N-{(5R,6S)-4-oxo-3-(propan-2-yl)-5-[(2,3′,5′-trifluoro[1,1′-biphenyl]-3-yl)methyl]-3,4,5,6,7,8-hexahydroquinazolin-6-yl}cyclopropane-1-sulfonamide] | – | 101 |
| CC(C)n1cnc2c(c1=O)[C@@H](Cc1cccc(-c3ccccc3F)c1F)[C@@H](NS(=O)(=O)C1(F)CC1)CC2 [Example 183, N-[(5R,6S)-5-[(2,2′-difluoro[1,1′-biphenyl]-3-yl)methyl]-4-oxo-3-(propan-2-yl)-3,4,5,6,7,8-hexahydroquinazolin-6-yl]-1-fluorocyclopropane-1-sulfonamide] | – | 95 |
| CC(C)n1cnc2c(c1=O)[C@@H](Cc1cccc(-c3cccc(F)c3F)c1F)[C@@H](NS(=O)(=O)C1(F)CC1)CC2 [Example 184, 1-fluoro-N-{(5R,6S)-4-oxo-3-(propan-2-yl)-5-[(2,2′,3′-trifluoro[1,1′-biphenyl]-3-yl)methyl]-3,4,5,6,7,8-hexahydroquinazolin-6-yl}cyclopropane-1-sulfonamide] | – | 98 |
| CC(C)n1cnc2c(c1=O)C(Cc1cccc(-c3ccccc3)c1)C(NS(=O)(=O)C1(F)CC1)CC2 (stereo not drawn) [Example 185, rel-N-{5-[([1,1′-biphenyl]-3-yl)methyl]-4-oxo-3-(propan-2-yl)-3,4,5,6,7,8-hexahydroquinazolin-6-yl}-1-fluorocyclopropane-1-sulfonamide] | – | 95 |
| CC(C)n1cnc2c(c1=O)C(Cc1cccc(-c3cccc(F)c3)c1)C(NS(=O)(=O)C1(F)CC1)CC2 (stereo not drawn) [Example 186, rel-1-fluoro-N-{5-[(3′-fluoro[1,1′-biphenyl]-3-yl)methyl]-4-oxo-3-(propan-2-yl)-3,4,5,6,7,8-hexahydroquinazolin-6-yl}cyclopropane-1-sulfonamide] | – | 90 |
| CC(C)n1cnc2c(c1=O)[C@@H](Cc1cccc(-c3cccc(F)c3)c1)[C@@H](NS(=O)(=O)C1CC1)CC2 [Example 188, N-[(5R,6S)-5-[(3′-fluoro[1,1′-biphenyl]-3-yl)methyl]-4-oxo-3-(propan-2-yl)-3,4,5,6,7,8-hexahydroquinazolin-6-yl]cyclopropanesulfonamide] | – | 107 |
| CC(C)n1cnc2c(c1=O)C(Cc1cccc(-c3cccc(F)c3F)c1)C(NS(=O)(=O)C1(F)CC1)CC2 (stereo not drawn) [Example 191, rel-N-{5-[(2′,3′-difluoro[1,1′-biphenyl]-3-yl)methyl]-4-oxo-3-(propan-2-yl)-3,4,5,6,7,8-hexahydroquinazolin-6-yl}-1-fluorocyclopropane-1-sulfonamide] | – | 90 |
| CC(C)n1cnc2c(c1=O)[C@@H](Cc1cccc(-c3ccccc3F)c1)[C@@H](NS(=O)(=O)C1CC1)CC2 [Example 192, N-[(5R,6S)-5-[(2′-fluoro[1,1′-biphenyl]-3-yl)methyl]-4-oxo-3-(propan-2-yl)-3,4,5,6,7,8-hexahydroquinazolin-6-yl]cyclopropanesulfonamide] | – | 101 |
| CC(C)n1cnc2c(c1=O)[C@@H](Cc1cccc(-c3cccc(F)c3F)c1)[C@@H](NS(=O)(=O)C1CC1)CC2 [Example 193, N-[(5R,6S)-5-[(2′,3′-difluoro[1,1′-biphenyl]-3-yl)methyl]-4-oxo-3-(propan-2-yl)-3,4,5,6,7,8-hexahydroquinazolin-6-yl]cyclopropanesulfonamide] | – | 97 |
| CC(C)n1cnc2c(c1=O)C(Cc1csc(-c3ccccc3)n1)C(NS(=O)(=O)C1(F)CC1)CC2 (stereo not drawn) [Example 194, rel-1-fluoro-N-{4-oxo-5-[(2-phenyl-1,3-thiazol-4-yl)methyl]-3-(propan-2-yl)-3,4,5,6,7,8-hexahydroquinazolin-6-yl}cyclopropane-1-sulfonamide] | – | 91 |
| CC(C)n1cnc2c(c1=O)[C@@H](Cc1cccc(-c3cc(F)cc(F)c3)c1F)[C@@H](NS(=O)(=O)C1CC1)CC2 [Example 195, N-{(5R,6S)-4-oxo-3-(propan-2-yl)-5-[(2,3′,5′-trifluoro[1,1′-biphenyl]-3-yl)methyl]-3,4,5,6,7,8-hexahydroquinazolin-6-yl}cyclopropanesulfonamide] | 183.08 % of vehicle treatment | 94 |
| CC(C)n1cnc2c(c1=O)[C@@H](Cc1cccc(-c3cccc(F)c3F)c1F)[C@@H](NS(=O)(=O)CF)CC2 [Example 196, 1-fluoro-N-{(5R,6S)-4-oxo-3-(propan-2-yl)-5-[(2,2′,3′-trifluoro[1,1′-biphenyl]-3-yl)methyl]-3,4,5,6,7,8-hexahydroquinazolin-6-yl}methanesulfonamide] | – | 91 |
| CC(C)n1cnc2c(c1=O)[C@@H](Cc1cccc(-c3cc(F)cc(F)c3)c1F)[C@@H](NS(=O)(=O)CF)CC2 [Example 199, 1-fluoro-N-{(5R,6S)-4-oxo-3-(propan-2-yl)-5-[(2,3′,5′-trifluoro[1,1′-biphenyl]-3-yl)methyl]-3,4,5,6,7,8-hexahydroquinazolin-6-yl}methanesulfonamide] | – | 90 |
| CCS(=O)(=O)N[C@H]1CCc2ncn(C(C)C)c(=O)c2[C@H]1Cc1cccc(-c2cccc(F)c2F)c1 [Example 200, N-[(5R,6S)-5-[(2′,3′-difluoro[1,1′-biphenyl]-3-yl)methyl]-4-oxo-3-(propan-2-yl)-3,4,5,6,7,8-hexahydroquinazolin-6-yl]ethanesulfonamide] | – | 89 |
| CC(C)n1c(=O)c2c(n1C)CCC(NS(C)(=O)=O)C2Cc1cccc(-c2ccccc2)c1 [Example 208, rel-N-[(4aR,5S)-4-[([1,1′-biphenyl]-3-yl)methyl]-1-methyl-3-oxo-2-(propan-2-yl)-2,3,4,5,6,7-hexahydro-1H-indazol-5-yl]methanesulfonamide] | – | 95 |
| [2H]C([2H])([2H])C([2H])(n1cnc2c(c1=O)C(Cc1cccc(-c3ccccc3)c1F)C(NS(=O)(=O)C1CC1)CC2)C([2H])([2H])[2H] [Example 212, rel-N-{(5R,6S)-5-[(2-fluoro[1,1′-biphenyl]-3-yl)methyl]-4-oxo-3-[(~2~H_7_)propan-2-yl]-3,4,5,6,7,8-hexahydroquinazolin-6-yl}cyclopropanesulfonamide] | – | 99 |
| [2H]C([2H])([2H])C([2H])(n1cnc2c(c1=O)C(Cc1cccc(-c3ccccc3)c1F)C(NS(=O)(=O)C1(F)CC1)CC2)C([2H])([2H])[2H] [Example 213, rel-1-fluoro-N-{(5S,6R)-5-[(2-fluoro[1,1′-biphenyl]-3-yl)methyl]-4-oxo-3-[(~2~H_7_)propan-2-yl]-3,4,5,6,7,8-hexahydroquinazolin-6-yl}cyclopropane-1-sulfonamide] | – | 105 |
